Measurements from patent US20240382438A1, “Calcium Channel Blockers and Methods Thereof” (University of Maryland, Eastern Shore, priority 2023, published 2024).
“Also recorded” adds a separate entry of the source. One block for each compound: values may come before it.

Columns and labels:
[1] = test system: differentiated ND7/23 cells; test: Intracellular calcium signals in differentiated ND7/23 cells stimulated with KCl or ionomycin; format: cell-based, mouse neuroblastoma and rat dorsal root ganglion cells; settings: 10 μM, control cells
Experimental: FIGS. 14A-C. Effect of RHB121 on the intracellular calcium signals generated in differentiated ND7/23 cells following stimulation with 30 mM extracellular K+ ions or the calcium ionophore ionomycin (10 μM). FIG. 14A. […] FIG. 14B. […] FIG. 14C. Relative changes in the intracellular calcium signal generated in differentiated ND7/23 cells by 30 mM KCl or Ionomycin (10 μM) in control or RHB121-treated cells. Control groups were arbitrarily assigned a 100% intracellular calcium signal.
To assess the effect of RHB121 on intracellular calcium signals, differentiated ND7/23 cells with a high potassium concentration (30 mM KCl) were simulated. The effect of the calcium ionophore Ionomycin, which also can increase intracellular calcium by a different mechanism, independently of T-type Ca^2+ channel activation, was also tested. Stimulation of differentiated ND7/23 with 30 mM KCl external solution caused a small increase in the intracellular calcium signal (FIG. 14A).

[2] = target: T1, human Cav3.2 (Homo sapiens, UniProt O95180); test: Whole-cell patch clamp of T-type Ca2+ currents in Cav3.2-stable transfected HEK 293 cells; format: cell-based; settings: for Effect on T-type Ca2+ current density: vs non-treated cells
T1 construct: host or cells: HEK 293
T1 sequence (O95180 whole entry): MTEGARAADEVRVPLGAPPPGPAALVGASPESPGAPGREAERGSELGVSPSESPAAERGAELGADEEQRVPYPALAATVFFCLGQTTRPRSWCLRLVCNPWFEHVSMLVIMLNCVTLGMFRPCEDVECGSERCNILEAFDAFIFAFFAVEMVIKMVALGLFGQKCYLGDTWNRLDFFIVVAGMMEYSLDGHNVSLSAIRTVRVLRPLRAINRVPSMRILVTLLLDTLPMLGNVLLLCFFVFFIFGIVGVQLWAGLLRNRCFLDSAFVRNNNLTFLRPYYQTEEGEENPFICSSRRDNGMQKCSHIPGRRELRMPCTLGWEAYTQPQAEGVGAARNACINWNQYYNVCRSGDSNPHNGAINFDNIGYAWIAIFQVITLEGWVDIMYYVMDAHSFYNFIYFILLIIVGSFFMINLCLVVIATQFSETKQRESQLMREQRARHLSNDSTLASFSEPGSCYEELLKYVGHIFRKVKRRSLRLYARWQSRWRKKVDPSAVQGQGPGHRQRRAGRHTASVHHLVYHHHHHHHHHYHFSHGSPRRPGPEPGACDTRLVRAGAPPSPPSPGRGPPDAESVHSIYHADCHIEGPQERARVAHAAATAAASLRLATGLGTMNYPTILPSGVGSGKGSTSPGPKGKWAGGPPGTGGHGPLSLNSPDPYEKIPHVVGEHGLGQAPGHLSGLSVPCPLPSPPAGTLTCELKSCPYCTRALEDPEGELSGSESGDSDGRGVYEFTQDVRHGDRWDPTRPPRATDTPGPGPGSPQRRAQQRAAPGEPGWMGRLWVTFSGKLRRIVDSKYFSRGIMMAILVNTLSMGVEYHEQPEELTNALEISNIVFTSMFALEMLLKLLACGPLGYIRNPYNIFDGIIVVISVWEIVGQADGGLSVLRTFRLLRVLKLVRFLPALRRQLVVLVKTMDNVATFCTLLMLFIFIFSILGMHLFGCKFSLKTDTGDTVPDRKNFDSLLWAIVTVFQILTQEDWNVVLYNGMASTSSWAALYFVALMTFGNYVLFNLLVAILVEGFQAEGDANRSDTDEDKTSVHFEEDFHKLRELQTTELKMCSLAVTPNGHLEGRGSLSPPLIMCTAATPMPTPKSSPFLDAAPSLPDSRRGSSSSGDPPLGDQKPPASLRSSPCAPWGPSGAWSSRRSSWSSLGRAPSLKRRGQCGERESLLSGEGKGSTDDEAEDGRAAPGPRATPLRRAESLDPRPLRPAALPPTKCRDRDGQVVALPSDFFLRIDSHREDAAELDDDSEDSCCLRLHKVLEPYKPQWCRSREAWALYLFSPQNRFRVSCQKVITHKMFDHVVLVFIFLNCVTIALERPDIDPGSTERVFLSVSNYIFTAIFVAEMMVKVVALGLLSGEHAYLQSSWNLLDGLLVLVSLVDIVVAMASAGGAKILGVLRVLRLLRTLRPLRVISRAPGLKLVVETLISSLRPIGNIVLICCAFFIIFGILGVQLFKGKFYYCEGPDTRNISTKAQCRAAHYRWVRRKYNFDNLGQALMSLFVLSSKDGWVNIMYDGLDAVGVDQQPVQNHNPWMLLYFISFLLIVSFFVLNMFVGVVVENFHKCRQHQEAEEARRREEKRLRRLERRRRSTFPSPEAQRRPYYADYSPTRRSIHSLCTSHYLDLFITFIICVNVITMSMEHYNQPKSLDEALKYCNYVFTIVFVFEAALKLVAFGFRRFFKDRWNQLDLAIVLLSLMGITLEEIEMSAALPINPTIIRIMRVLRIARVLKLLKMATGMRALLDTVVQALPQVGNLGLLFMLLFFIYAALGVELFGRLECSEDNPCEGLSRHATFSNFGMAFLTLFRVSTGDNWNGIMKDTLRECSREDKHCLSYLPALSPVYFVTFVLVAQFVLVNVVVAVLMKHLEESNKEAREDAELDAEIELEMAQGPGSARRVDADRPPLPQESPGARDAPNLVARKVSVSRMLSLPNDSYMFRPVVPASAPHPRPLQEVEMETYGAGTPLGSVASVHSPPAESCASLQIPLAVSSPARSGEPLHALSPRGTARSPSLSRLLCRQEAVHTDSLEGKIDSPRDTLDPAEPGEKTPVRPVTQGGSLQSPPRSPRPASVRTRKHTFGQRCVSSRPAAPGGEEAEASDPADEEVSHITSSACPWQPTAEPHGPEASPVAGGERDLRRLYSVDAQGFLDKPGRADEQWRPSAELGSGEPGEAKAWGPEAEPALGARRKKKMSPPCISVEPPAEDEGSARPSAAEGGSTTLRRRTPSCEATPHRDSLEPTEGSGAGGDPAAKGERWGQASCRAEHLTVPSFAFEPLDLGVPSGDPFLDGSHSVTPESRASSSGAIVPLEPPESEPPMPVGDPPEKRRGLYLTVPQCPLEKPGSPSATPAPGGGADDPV
Experimental: Certain exemplary embodiments have undergone target identification studies to discover a better officious T-type calcium blocker. The fourteen trifluoromethylated N-benzamide enaminone compounds were synthesized, purified, and structure confirmed using gas chromatography/mass spectroscopy, nuclear magnetic resonance, and elemental analysis. Preliminary in vitro whole cell patch clamp experiments were performed to assess the inhibitory effects of several target analogs on voltage-activated calcium currents in human embryonic kidney (HEK-293) cells. Cav3.2 transfected HEK 293 cells were treated with 50 μM of test compounds and compared to the control group (none pretreated HEK 293 cells).
(§1) ND7/23 cells are derived from the fusion of mouse neuroblastoma and rat dorsal root ganglion cells, which generates a more homogeneous sensory neuron-like cell population. ND7/23 cells were purchased from Sigma-Aldrich (RRID:CVCL_4259). Culture and differentiation of ND7/23 cells was performed as previously described. Briefly, ND7/23 cells were cultured in DMEM/F12 culture media (Millipore, Cat. #DF-041-B), supplemented with 0.5% fetal bovine serum (Invitrogen, Cat. #10437010), db-cAMP (1 mM, Sigma-Aldrich, Cat. #D0627), and nerve growth factor (NGF, 50 ng/mL, Sigma-Aldrich, Ca. #N2513). To remove any proliferating cells, cultures were treated with uridine (20 μM, Sigma-Aldrich, Cat. #U3003) and fluorodeoxyuridine (20 μM, Sigma-Aldrich, Cat. #F0503). Cells were maintained in differentiation media without uridine and fluorodeoxyuridin after induction of differentiation. ND7/23 cells were maintained in differentiation media for ≤6 days. HEK 293 cells that were stabled transfected with the human Cav3.2 and Cav3.3 channel subunits were a gift of Dr. E. Perez-Reyes (University of Virginia). Cav3.2 (or Cav3.3)-stabled transfected HEK 293 cells were culture in DMEM/F12 culture media, supplemented with 5% fetal bovine serum, 50 U/mL penicillin and 50 μg/mL streptomycin. ND7/23 and HEK 293 cells were grown in an incubator at 37° C. in the presence of 5% CO2/95% air humidified atmosphere. Cells passaged less than 20 times were used in this work. Cells were grown in poly-D-lysine-coated glass coverslips for electrophysiological recordings.
Whole cell recordings were performed as previously described. A Nikon Eclipse Ti inverted microscope equipped with Hoffman optics and epifluorescence filters was used to visualize individual cells. Recordings were performed at room temperature (22-24° C.) using glass electrodes made from thin wall borosilicate glass (3-5 MΩ). For electrophysiological recordings of inward Ca^2+ currents, outward K^+ currents were eliminated by equimolar substitution of K^+ with Cs^+ in the pipette solution, whereas inward Na^+ currents were eliminated by the use of TEA ions in the external solution, which are unable to go through voltage-gated Na^+ channels. The pipette solution consisted of (in mM) CsCl (120), MgCl2(2), HEPES (10), EGTA (10), ATP (1), and GTP (0.1), pH 7.4 with CsOH. The composition of the normal external saline used for measurements of Ca^2+ currents was (in mM): tetraethylammonium chloride (TEACl, 145), CaCl2 (10), MgCl2(1), HEPES (10), and glucose (5), pH 7.4 adjusted with CsOH. Ca^2+ currents were generated by applying a 200-500 ms-depolarizing step to various potentials from a holding potential of −100 mV. The external solution used to measure Na^+ currents contained (in mM) NaCl (145), KCl (5.3), CaCl2 (0.5), MgCl2 (5.7), HEPES (13), and glucose (5), pH 7.4 adjusted with KOH. The composition of the CsCl-pipette solution used to record Na^+ currents was the same describe above. Na^+ currents were generated by applying a 20 ms-depolarizing step to various potentials from a holding potential of −100 mV. To assess drug-evoked changes on specific ionic conductances, current amplitudes were expressed as current densities as previously reported. […]

[3] = test system: T-type Ca^2+ channels; test: Whole-cell recording of T-type Ca2+ currents in differentiated ND7/23 cells; format: cell-based, mouse neuroblastoma and rat dorsal root ganglion cells; settings: 50 μM, differentiated ND7/23 cells, vs non-treated cells
Experimental: as §1
Whole cell recordings were performed as previously described. A Nikon Eclipse Ti inverted microscope equipped with Hoffman optics and epifluorescence filters was used to visualize individual cells. Recordings were performed at room temperature (22-24° C.) using glass electrodes made from thin wall borosilicate glass (3-5 MΩ). For electrophysiological recordings of inward Ca^2+ currents, outward K^+ currents were eliminated by equimolar substitution of K^+ with Cs^+ in the pipette solution, whereas inward Na^+ currents were eliminated by the use of TEA ions in the external solution, which are unable to go through voltage-gated Na^+ channels. The pipette solution consisted of (in mM) CsCl (120), MgCl2(2), HEPES (10), EGTA (10), ATP (1), and GTP (0.1), pH 7.4 with CsOH. The composition of the normal external saline used for measurements of Ca^2+ currents was (in mM): tetraethylammonium chloride (TEACl, 145), CaCl2 (10), MgCl2(1), HEPES (10), and glucose (5), pH 7.4 adjusted with CsOH. Ca^2+ currents were generated by applying a 200-500 ms-depolarizing step to various potentials from a holding potential of −100 mV. The external solution used to measure Na^+ currents contained (in mM) NaCl (145), KCl (5.3), CaCl2 (0.5), MgCl2 (5.7), HEPES (13), and glucose (5), pH 7.4 adjusted with KOH. The composition of the CsCl-pipette solution used to record Na^+ currents was the same describe above. Na^+ currents were generated by applying a 20 ms-depolarizing step to various potentials from a holding potential of −100 mV. To assess drug-evoked changes on specific ionic conductances, current amplitudes were expressed as current densities as previously reported. To assess current densities, cell size was normalized by dividing current amplitudes by cell capacitance. Cell capacitance was determined by integrating the transient current evoked by a 10-mV voltage step from a holding potential of −60 mV.
A MULTICLAMP 700A amplifier and PCLAMP software (Axon Instruments) was used to deliver voltage commands and to perform data acquisition and analysis. Pipette offset, whole cell capacitance, and series resistance were compensated automatically with the MultiClamp 700B Commander. Only cells with stable seals and series resistance (≤10 MΩ) were analyzed. Sampling rates were between 5 and 10 kHz. Leak currents were subtracted online using a P/4 protocol. […]

Structure (SMILES): C[C@H](CCC(=O)O)C[C@H](C)C[C@H](C)C(=O)/C=C(\O)[C@H](C)C[C@H](C)C/C=C/[C@@H](C)[C@@H](O)[C@@H](C)[C@@H](O)C[C@@H]1CC[C@@](C)([C@H]2CC[C@@](C)([C@@H](C)O)O2)O1 [Ionomycin, reference compound]
Change in intracellular calcium signal on stimulation [1]: significant increase

Effect on T-type Ca2+ current density ([2]; 50 μM, HEK 293-Cav3.2 cells): No inhibitory effect
Structure (SMILES): Cc1cc(C)cc(C(=O)NC2=CC(=O)CC(C)C2)c1 (centres unmarked) [RHB59, 3,5-dimethyl-N-(5-methyl-3-oxocyclohex-1-en-1-yl)benzamide]

Effect on T-type Ca2+ current density ([2]; 50 μM, HEK 293-Cav3.2 cells): No inhibitory effect
Structure (SMILES): O=C1C=C(NC(=O)c2cccc(C(F)(F)F)c2F)CC(C(F)(F)F)C1 (centres unmarked) [RHB103]

Structure (SMILES): O=C1C=C(NC(=O)c2cc(F)cc(F)c2)CC(C(F)(F)F)C1 (centres unmarked) [RHB107]
Effect on whole cell capacitance ([2]; 50 μM, HEK 293-Cav3.2 cells): no significant changes; also recorded: no effect on cell capacitance

inhibition at 50 µM ([2]; HEK293, 50 μM, Cav3.2 transfected HEK 293 cells, read-out: Inhibition of calcium currents on T-type calcium channels): 90%
Structure (SMILES): O=C1C=C(NC(=O)c2cc(C(F)(F)F)cc(C(F)(F)F)c2)CC(C(F)(F)F)C1 (centres unmarked) [RHB-77, N-(3-oxo-5-(trifluoromethyl)cyclohex-1-en-1-yl)-3,5-bis(trifluoromethyl)benzamide]
Concentration dependence of the inhibition of T-type Ca2+ currents ([2]; HEK 293-Cav3.2 cells): significant inhibition of T-type calcium currents in a concentration-dependent manner

Structure (SMILES): CC1CC(=O)C=C(NC(=O)c2ccc(C(F)(F)F)cc2)C1 (centres unmarked) [THA40, N-(5-methyl-3-oxocyclohex-1-en-1-yl)-4-(trifluoromethyl) benzamide]
Effect on T-type Ca2+ current density [3]: None of the tested compounds has any effect | Effect on T-type Ca2+ current density ([3]; listed as TTA40): no effect on Ca^2+ current densities
